One block for each compound: values may come before it.
Experiments:
[1] = biological target: T1, Histone deacetylase 1 (Homo sapiens, UniProt Q13547); test: Inhibition of recombinant human HDAC1 using a fluorogenic substrate at 1 uM by fluorescence method
[2] = biological target: T1, Histone deacetylase 1; test: Inhibition of recombinant human HDAC1 using a fluorogenic substrate at 10 uM by fluorescence method
[3] = biological target: T1, Histone deacetylase 1; test: Inhibition of recombinant human HDAC1 expressed in Baculovirus insect cell expression system using [3H]-metabolically labeled acetylated histone substrate after 30 mins by scintillation counting
[4] = test system: PC-3; test: Antitumor activity against human PC3 cells xenografted in nude mouse assessed as tumor growth inhibition at 100 mg/kg, ig administered 7 days per week for 3 weeks; assay type: functional; conditions: PC-3, po, read-out: TGI
[5] = test system: MRC5; test: Antiproliferative activity against human MRC5 cells after 48 to 72 hrs by MTT assay; assay type: cell-based
[6] = biological target: T1, Histone deacetylase 1; test: Inhibition of recombinant human HDAC1 using a fluorogenic substrate by fluorescence method
[7] = test system: HCT-116; test: Antiproliferative activity against human HCT116 cells after 48 to 72 hrs by MTT assay; assay type: functional, cell-based
[8] = test system: A549; test: Antiproliferative activity against human A549 cells after 48 to 72 hrs by MTT assay; assay type: functional, cell-based
[9] = test system: K562; test: Antiproliferative activity against human K562 cells after 48 to 72 hrs by MTT assay; assay type: functional, cell-based
[10] = test system: PC-3; test: Antiproliferative activity against human PC3 cells after 48 to 72 hrs by MTT assay; assay type: functional, cell-based
[11] = biological target: Voltage-gated inwardly rectifying potassium channel KCNH2 (Homo sapiens, UniProt Q12809); test: Inhibition of recombinant human ERG expressed in HEK293 cells after 9 mins by patch clamp method
Chain of Voltage-gated inwardly rectifying potassium channel KCNH2 (Q12809 whole entry): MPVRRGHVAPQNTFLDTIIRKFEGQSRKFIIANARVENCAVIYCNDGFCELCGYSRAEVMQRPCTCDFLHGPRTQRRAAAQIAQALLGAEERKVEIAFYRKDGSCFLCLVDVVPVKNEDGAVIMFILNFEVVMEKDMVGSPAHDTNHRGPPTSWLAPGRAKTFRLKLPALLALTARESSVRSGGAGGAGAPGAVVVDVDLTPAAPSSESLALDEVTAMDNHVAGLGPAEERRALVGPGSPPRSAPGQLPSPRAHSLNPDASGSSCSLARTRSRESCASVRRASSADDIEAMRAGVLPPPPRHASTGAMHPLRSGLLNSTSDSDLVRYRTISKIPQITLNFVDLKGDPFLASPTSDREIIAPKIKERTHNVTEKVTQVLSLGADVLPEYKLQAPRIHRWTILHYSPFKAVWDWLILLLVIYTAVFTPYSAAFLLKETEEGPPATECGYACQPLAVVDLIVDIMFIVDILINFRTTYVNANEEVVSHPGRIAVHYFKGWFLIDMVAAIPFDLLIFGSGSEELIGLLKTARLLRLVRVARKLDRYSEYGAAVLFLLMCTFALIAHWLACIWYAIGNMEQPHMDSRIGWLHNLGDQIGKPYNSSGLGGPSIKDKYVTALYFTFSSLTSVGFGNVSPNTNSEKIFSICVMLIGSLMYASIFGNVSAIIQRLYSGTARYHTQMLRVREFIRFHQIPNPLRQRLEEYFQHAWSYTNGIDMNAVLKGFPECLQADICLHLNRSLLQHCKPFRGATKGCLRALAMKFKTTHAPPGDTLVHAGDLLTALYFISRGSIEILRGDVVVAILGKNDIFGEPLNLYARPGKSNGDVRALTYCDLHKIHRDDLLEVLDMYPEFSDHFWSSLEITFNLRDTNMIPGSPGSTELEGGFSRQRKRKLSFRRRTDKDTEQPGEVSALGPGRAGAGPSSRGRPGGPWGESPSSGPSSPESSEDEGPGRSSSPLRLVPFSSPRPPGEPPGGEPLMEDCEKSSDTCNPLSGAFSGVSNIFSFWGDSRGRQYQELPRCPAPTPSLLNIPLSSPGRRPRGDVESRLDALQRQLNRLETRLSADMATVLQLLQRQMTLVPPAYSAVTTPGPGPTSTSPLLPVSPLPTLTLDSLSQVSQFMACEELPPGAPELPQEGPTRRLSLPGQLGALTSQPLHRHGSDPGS

[12] = Terminal half life in Sprague-Dawley rat at 2 mg/kg, iv administered as single dose by HPLC-MS method; assay type: ADME, organism-based; conditions: in vivo, read-out: beta t1/2 (converted)
[13] = Clearance in Sprague-Dawley rat at 2 mg/kg, iv administered as single dose by HPLC-MS method; assay type: ADME, organism-based; conditions: in vivo
[14] = Volume of distribution at steady state in Sprague-Dawley rat at 2 mg/kg, iv administered as single dose by HPLC-MS method; assay type: ADME, organism-based; conditions: in vivo, read-out: Vdss
[15] = Tmax in Sprague-Dawley rat at 10 mg/kg, po administered as single dose by HPLC-MS method; assay type: ADME, organism-based; conditions: in vivo
[16] = Cmax in Sprague-Dawley rat at 10 mg/kg, po administered as single dose by HPLC-MS method; assay type: ADME, organism-based; parameters: dose 10 mg/kg, route oral; conditions: in vivo
[17] = AUC in Sprague-Dawley rat at 10 mg/kg, po administered as single dose by HPLC-MS method; assay type: ADME, organism-based; conditions: in vivo
[18] = Oral bioavailability in Sprague-Dawley rat at 10 mg/kg administered as single dose by HPLC-MS method; assay type: ADME, organism-based; conditions: in vivo
[19] = test system: HCT-116; test: Antitumor activity against human HCT116 cells xenografted in mouse assessed as tumor growth inhibition at 25 mg/kg, po daily for 21 days; assay type: functional; conditions: HCT-116, po, 504 h, read-out: TGI
[20] = test system: HCT-116; test: Antitumor activity against human HCT116 cells xenografted in mouse assessed as tumor growth inhibition at 50 mg/kg, po daily for 21 days; assay type: functional; conditions: HCT-116, po, 504 h, read-out: TGI
[21] = test system: HCT-116; test: Antitumor activity against human HCT116 cells xenografted in mouse assessed as tumor growth inhibition at 100 mg/kg, po daily for 21 days; assay type: functional; conditions: HCT-116, po, 504 h, read-out: TGI
[22] = test system: HCT-116; test: Antitumor activity against human HCT116 cells xenografted in po dosed mouse assessed as tumor growth inhibition administered daily for 21 days; assay type: functional, organism-based
[23] = test system: Mus musculus; test: Toxicity in mouse xenografted with HCT116 cells assessed as weight loss at 50 mg/kg, po daily for 21 days; assay type: organism-based; conditions: in vivo, 504 h
[24] = test system: Mus musculus; test: Toxicity in mouse xenografted with HCT116 cells assessed as weight loss at 100 mg/kg, po daily measured for 12 days; assay type: organism-based; conditions: in vivo, 288 h
[25] = test system: Mus musculus; test: Toxicity in mouse xenografted with HCT116 cells assessed as weight loss at 25 mg/kg, po daily for 21 days; assay type: organism-based; conditions: in vivo, 504 h

T1 sequence (Q13547 whole entry): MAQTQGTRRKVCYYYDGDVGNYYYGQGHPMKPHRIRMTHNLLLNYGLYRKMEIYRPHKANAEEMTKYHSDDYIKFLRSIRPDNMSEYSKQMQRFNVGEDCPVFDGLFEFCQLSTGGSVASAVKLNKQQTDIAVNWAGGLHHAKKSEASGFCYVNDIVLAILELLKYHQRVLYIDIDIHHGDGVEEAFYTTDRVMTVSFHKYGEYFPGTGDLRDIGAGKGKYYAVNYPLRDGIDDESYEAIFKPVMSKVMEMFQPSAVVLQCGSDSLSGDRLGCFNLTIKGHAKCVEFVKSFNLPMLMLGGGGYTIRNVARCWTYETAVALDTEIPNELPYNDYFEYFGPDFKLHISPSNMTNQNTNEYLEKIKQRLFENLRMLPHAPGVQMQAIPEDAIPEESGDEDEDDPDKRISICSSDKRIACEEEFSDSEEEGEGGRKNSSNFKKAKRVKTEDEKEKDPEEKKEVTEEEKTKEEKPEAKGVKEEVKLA

SMILES: Nc1ccccc1NC(=O)c1ccc(N2CCN(C(=O)/C=C/c3cccnc3)CC2)cc1
inhibition [1]: 18.1%
inhibition [2]: 53.8%

SMILES: Nc1ccccc1NC(=O)c1ccc(N2CCN(C(=O)/C=C/c3ccc4c(c3)OCO4)CC2)cc1
inhibition [1]: 49.6%
inhibition [2]: 75.5%

SMILES: Cc1ccc(/C=C/C(=O)N2CCN(c3ccc(C(=O)Nc4ccc(F)cc4N)cc3)CC2)cc1
inhibition [1]: 17.4%
inhibition [2]: 64.3%

SMILES: COc1ccc(/C=C/C(=O)NCc2ccc(C(=O)Nc3ccncc3N)cc2)cc1
IC50 [3]: 3300 nM
inhibition in vivo at 100 mg/kg [4]: 39%

SMILES: Nc1cc(F)ccc1NC(=O)c1ccc(N2CCN(C(=O)/C=C/c3ccc(F)cc3)CC2)cc1
inhibition [1]: 36%
inhibition [2]: 58.8%

SMILES: Nc1cc(F)ccc1NC(=O)c1ccc(N2CCN(C(=O)/C=C/c3cccnc3)CC2)cc1
inhibition [1]: 4.71%
inhibition [2]: 19.2%

SMILES: Nc1ccc(F)cc1NC(=O)c1ccc(CNC(=O)/C=C/c2cccnc2)cc1
IC50 [5]: > 30000 nM
inhibition [1]: 55.1%
inhibition [2]: 81.3%
IC50 [7]: 202 nM
IC50 [8]: 665 nM
IC50 [9]: 975 nM
IC50 [10]: 2090 nM

SMILES: Nc1cc(F)ccc1NC(=O)c1ccc(N2CCN(C(=O)/C=C/c3ccc4c(c3)OCO4)CC2)cc1
inhibition [1]: 18%
inhibition [2]: 53.4%

The next lines start with results.

inhibition [1]: 46.5%
inhibition [2]: 79.2%
SMILES: COc1ccc(/C=C/C(=O)N2CCN(c3ccc(C(=O)Nc4ccccc4N)cc3)CC2)cc1OC

inhibition [1]: 45.3%
inhibition [2]: 66.9%
SMILES: COc1cccc(/C=C/C(=O)N2CCN(c3ccc(C(=O)Nc4ccccc4N)cc3)CC2)c1

inhibition [1]: 50.2%
inhibition [2]: 87.8%
IC50 [6]: 903 nM
IC50 [7]: 765 nM
IC50 [8]: 530 nM
IC50 [9]: 2960 nM
IC50 [10]: 8710 nM
SMILES: COc1ccc(/C=C/C(=O)N2CCN(c3ccc(C(=O)Nc4ccccc4N)cc3)CC2)cc1
IC50 [5]: > 30000 nM
IC50 [11]: 25100 nM

inhibition [1]: 56.3%
inhibition [2]: 94.2%
IC50 [6]: 798 nM
IC50 [7]: 69 nM
IC50 [8]: 135 nM
IC50 [9]: 4860 nM
IC50 [10]: 3960 nM
half-life [12]: 64.2 min
clearance [13]: 7.5 mL/min/kg
Vd [14]: 0.11 L/kg
Tmax [15]: 25.8 min
Cmax [16]: 2510 ng/mL
AUC [17]: 8910 ng·h/mL
bioavailability [18]: 36.3%
SMILES: Cc1ccc(/C=C/C(=O)N2CCN(c3ccc(C(=O)Nc4ccccc4N)cc3)CC2)cc1
IC50 [5]: > 30000 nM
IC50 [11]: 27100 nM
inhibition in vivo at 25 mg/kg [19]: 42.4%
inhibition in vivo at 50 mg/kg [20]: 55.1%
inhibition in vivo at 100 mg/kg [21]: 76.3%
TGI [22]: Dose-dependent effect
Activity [23]: 11.3%
Activity [24]: 19.2%
Activity [25]: < 5%

inhibition [1]: 34.3%
inhibition [2]: 66.8%
SMILES: Nc1ccccc1NC(=O)c1ccc(N2CCN(C(=O)/C=C/c3ccccc3)CC2)cc1

inhibition [1]: 52%
inhibition [2]: 79%
IC50 [6]: 983 nM
IC50 [7]: 1980 nM
IC50 [8]: 811 nM
IC50 [9]: 1100 nM
IC50 [10]: 2140 nM
SMILES: Nc1ccccc1NC(=O)c1ccc(N2CCN(C(=O)/C=C/c3ccc(F)cc3)CC2)cc1
IC50 [5]: > 30000 nM

inhibition [1]: 21.8%
inhibition [2]: 60.5%
SMILES: COc1cc(/C=C/C(=O)N2CCN(c3ccc(C(=O)Nc4ccccc4N)cc3)CC2)cc(OC)c1OC

Source: ChEMBL document CHEMBL4020782, “Design, synthesis and biological evaluation of 4-piperazinyl-containing Chidamide derivatives as HDACs inhibitors” (Bioorg Med Chem Lett, 2017)
